In publication PMC7400623, “Effect of lysine side chain length on histone lysine acetyltransferase catalysis” (Scientific Reports, 2020):

Legend:
PCAF (KAT2B) = biological target: T1, PCAF (KAT2B) (Homo sapiens, UniProt Q92831); experiment: MALDI-TOF MS enzymatic assay of PCAF-catalyzed acetylation of histone peptides; type: biochemical; conditions: 100 µM peptide, 300 µM AcCoA, pH 8.0, 37 °C; for acetylation (conversion to acetylated peptide) by PCAF: after 3 h, 2 µM PCAF, 50 mM Hepes, 0.1 mM EDTA, 1 mM DTT
T1 construct: Human PCAF catalytic domain (residues 498–658 in pET16b vector); SNAP-tag; His-tag; made in house; host or cells: E. coli BL21(DE3)
T1 sequence (Q92831 498-658): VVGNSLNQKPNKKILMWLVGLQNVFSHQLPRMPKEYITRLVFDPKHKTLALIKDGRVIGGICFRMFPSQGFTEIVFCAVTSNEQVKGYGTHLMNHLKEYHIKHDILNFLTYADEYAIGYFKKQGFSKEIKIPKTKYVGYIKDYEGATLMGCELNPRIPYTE
Experimental: (§1) MALDI-TOF MS enzymatic assays were carried out to investigate KAT-catalyzed acetylation of synthetic histone peptides. The enzymatic activity of the recombinantly expressed human KATs was measured at different time points (2 µM KAT enzyme, 100 µM histone peptide, 300 µM AcCoA, buffer: 50 mM Hepes, 0.1 mM EDTA, 1 mM DTT, pH = 8.0, 37 °C, hereafter used as standard conditions) (Fig. 3b,c). […] As further control, H4 and H3 peptides containing stereochemically inverted D-lysine were synthesized.
(§2) The KAT enzymatic activity towards histone peptides was measured at different time points under standard conditions (2 µM KAT enzyme, 100 µM peptide, 300 µM AcCoA) in the reaction buffer (50 mM HEPES, 0.1 mM EDTA, 1 mM DTT, pH = 8.0). The reactions were carried out in a final volume of 50 µL and shaken up in a Thermomixer C at 750 rpm, at 37 °C. The reactions were quenched by the addition of TFA 10% in MilliQ water at different time points. All reactions were aliquoted and mixed 1:2 with a solution of α-Cyano-4-hydroxycinnamic acid (CHCCA) in 1:1 MQ and ACN (0.1% TFA) and loaded onto an MTP 384 polished steel target to be analyzed by a UltrafleXtreme-II tandem mass spectrometer (Bruker, Billerica, MA, USA).

GCN5 (KAT2A) = biological target: T2, GCN5 (KAT2A) (Homo sapiens, UniProt Q92830); experiment: MALDI-TOF MS enzymatic assay of GCN5-catalyzed acetylation of histone peptides; type: biochemical; conditions: 300 µM AcCoA, pH 8.0, 37 °C; for acetylation (conversion to acetylated peptide) by GCN5: after 3 h, 2 µM GCN5, 100 µM peptide, 50 mM Hepes, 0.1 mM EDTA, 1 mM DTT
T2 construct: Human GCN5 catalytic domain (residues 497–662 in pET28a-LIC vector); His-tag; host or cells: E. coli BL21(DE3)
T2 sequence (Q92830 497-662): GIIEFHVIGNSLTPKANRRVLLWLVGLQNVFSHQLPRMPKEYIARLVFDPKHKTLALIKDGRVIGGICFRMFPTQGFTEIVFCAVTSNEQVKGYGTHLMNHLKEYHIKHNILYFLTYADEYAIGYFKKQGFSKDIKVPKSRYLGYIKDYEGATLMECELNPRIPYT
Experimental: as §1, §2

[1] = biological target: Human GCN5 catalytic domain (residues 497-662) (human) (UniProt Q92830)
Chain of Human GCN5 catalytic domain (residues 497-662) (human) (Q92830 497-662): as above

[2] = biological target: Human PCAF catalytic domain (residues 498-658) (human) (UniProt Q92831)
Chain of Human PCAF catalytic domain (residues 498-658) (human) (Q92831 498-658): as the sequence (Q92831 498-658) above

[3] = biological target: Human GCN5 catalytic domain (residues 497-662) (human) (UniProt Q92830); remark: listed apart in the source
[4] = biological target: Human PCAF catalytic domain (residues 498-658) (human) (UniProt Q92831); remark: listed apart in the source
PCAF catalytic domain = biological target: T3, PCAF catalytic domain (Homo sapiens, UniProt Q92831); experiment: MALDI-TOF MS kinetics assay, PCAF; type: biochemical; conditions: for kcat^app / Km: PCAF catalytic domain 50 nM (2 µM for unnatural analogs), peptide 1,050–0 µM, pH 7.4, 37 °C, MALDI-TOF MS, duplicates, value ± SD, SD; for kcat^app: AcCoA 100 µM (saturating), 50 mM HEPES, 0.1 mM EDTA, 0.01% TRITON-X; for Km: AcCoA 100 µM, read-out: Km^app; for kcat^app/Km^app / decrease (drop) of kcat/Km for PCAF compared to the natural lysine peptide: PCAF; for kcat^app/Km^app: same kinetics conditions; for decrease (drop) of kcat/Km for PCAF compared to the natural lysine peptide: K14 series vs H3K14, K9 series vs H3K9
T3 construct: Human PCAF catalytic domain (residues 498–658 in pET16b vector); SNAP-tag; His-tag; made in house; host or cells: E. coli BL21(DE3)
T3 sequence (Q92831 498-658): as above
Text: (§3) Kinetic analysis of bi-substrate enzymes, such as KATs, is reckoned to be challenging and dependent on many factors. Firstly, given the nature of these enzymes, the binding of one of the two substrates directly influences the binding of the other (with a direct effect on the Michaelis–Menten parameter Km). […] Therefore, to obtain data that would allow us to directly compare the catalytic properties of the selected KATs towards our selection of histone peptides bearing lysine analogs with longer side chains, two strategies to standardize our kinetic evaluation were taken: i) all the experiments were carried out with the same saturating concentrations of AcCoA and ii) only KATs catalytic domains were employed in the study.
(§4) Histone peptides kinetics evaluation was carried out with a MALDI-TOF MS assay under steady-state conditions[57],[58]. Histone peptides (1,050–0 µM) were incubated with AcCoA (100 µM) and the reactions were started by the addition of the enzyme (MOF 570 nM, PCAF and GCN5 50 nM) in a final volume of 20 µL in kinetic buffer (50 mM HEPES, 0.1 mM EDTA, 0.01% TRITON-X, pH = 7.4). […] AcCoA stock solutions in milli-Q water were calibrated with a NanoDrop 2000 spectrophotometer (Thermo Scientific, Waltham, MA, USA), employing the characteristic molar extinction coefficient ε260nm = 16,400 M^−1 cm^−1. Reactions were incubated at 37 °C, shaken at 750 rpm and quenched with TFA 10% in milli-Q water at different time points, within linear production of acetylated peptides extrapolated from time-course plots. All reactions were aliquoted and mixed 1:2 with a solution of α-cyano-4-hydroxycinnamic acid (CHCCA) in 1:1 MQ and ACN (0.1% TFA) and loaded onto MTP 384 polished steel target to be analyzed by UltrafleXtreme-II tandem mass spectrometer (Bruker). The amount of acetylated peptide was calculated by integration of the product peak area and divided it by the amount of unacetylated peptide, taking in account all the ionic species, at any concentration points using the FlexAnalysis software. Kinetic values were extrapolated by fitting V0 values (µM of produced peptide per minutes) and histone peptide concentrations to the Michaelis–Menten equation using the GraphPad Prism 5 software. Kinetic experiments were carried out in duplicates and final values are reported as value ± SD.

GCN5 catalytic domain = biological target: T4, GCN5 catalytic domain (Homo sapiens, UniProt Q92830); experiment: MALDI-TOF MS kinetics assay, GCN5; type: biochemical; conditions: for kcat^app/Km^app / decrease (drop) of kcat/Km for GCN5 compared to the natural lysine peptide: GCN5; for kcat^app/Km^app: same kinetics conditions; for kcat^app / Km: GCN5 catalytic domain 50 nM (2 µM for unnatural analogs), peptide 1,050–0 µM, pH 7.4, 37 °C, MALDI-TOF MS, duplicates, value ± SD, SD; for kcat^app: AcCoA 100 µM (saturating), 50 mM HEPES, 0.1 mM EDTA, 0.01% TRITON-X; for Km: AcCoA 100 µM, read-out: Km^app; for decrease (drop) of kcat/Km for GCN5 compared to the natural lysine peptide: K14 series vs H3K14, K9 series vs H3K9
T4 construct: Human GCN5 catalytic domain (residues 497–662 in pET28a-LIC vector); His-tag; host or cells: E. coli BL21(DE3)
T4 sequence (Q92830 497-662): as the sequence (Q92830 497-662) above
Text: as §3, §4

ARTKQTAR h3K9STGGK Ac A [H3h3K9, 15-mer histone H3 peptide (K14ac) with h3K at position 9]
substrate for PCAF-catalyzed acetylation (in words) (PCAF (KAT2B); standard conditions: 2 µM PCAF, 3 h, MALDI-TOF MS): No acetylation was observed within limits of detection
substrate for GCN5-catalyzed acetylation (in words) (GCN5 (KAT2A); standard conditions: 2 µM GCN5, 100 µM peptide, 3 h, MALDI-TOF MS): No acetylation was observed within limits of detection

H3K14 histone peptide (H3 residues 3-17, K9 acetylated)
Km^app of GCN5-catalyzed acetylation (MALDI-TOF MS kinetics, steady state, saturating AcCoA, 37 °C, pH 7.4) [1]: 995 μM
Km^app of PCAF-catalyzed acetylation (MALDI-TOF MS kinetics, steady state, saturating AcCoA, 37 °C, pH 7.4) [2]: 727 μM

H3K*9 histone peptide containing Dab at position 9 (H3 residues 1-15, K14 acetylated)
IC50 of inhibition of GCN5-catalyzed acetylation of the H3K9 peptide (single point, 100 µM of each peptide, 1 h, 37 °C, MALDI-TOF MS; residual activity greater than 50%) [3]: > 100 µM
IC50 of inhibition of PCAF-catalyzed acetylation of the H3K9 peptide (single point, 100 µM of each peptide, 1 h, 37 °C, MALDI-TOF MS; residual activity greater than 50%) [4]: > 100 µM

H3K*9 histone peptide containing Orn at position 9 (H3 residues 1-15, K14 acetylated)
IC50 of inhibition of GCN5-catalyzed acetylation of the H3K9 peptide (single point, 100 µM of each peptide, 1 h, 37 °C, MALDI-TOF MS; residual activity greater than 50%) [3]: > 100 µM
IC50 of inhibition of PCAF-catalyzed acetylation of the H3K9 peptide (single point, 100 µM of each peptide, 1 h, 37 °C, MALDI-TOF MS; residual activity greater than 50%) [4]: > 100 µM

H3K*9 histone peptide containing h4K at position 9 (H3 residues 1-15, K14 acetylated)
IC50 of inhibition of GCN5-catalyzed acetylation of the H3K9 peptide (single point, 100 µM of each peptide, 1 h, 37 °C, MALDI-TOF MS; residual activity greater than 50%) [3]: > 100 µM
IC50 of inhibition of PCAF-catalyzed acetylation of the H3K9 peptide (single point, 100 µM of each peptide, 1 h, 37 °C, MALDI-TOF MS; residual activity greater than 50%) [4]: > 100 µM

H3K*14 histone peptide containing Dab at position 14 (H3 residues 3-17, K9 acetylated)
IC50 of inhibition of GCN5-catalyzed acetylation of the H3K14 peptide (single point, 100 µM of each peptide, 1 h, 37 °C, MALDI-TOF MS; residual activity greater than 50%) [3]: > 100 µM
IC50 of inhibition of PCAF-catalyzed acetylation of the H3K14 peptide (single point, 100 µM of each peptide, 1 h, 37 °C, MALDI-TOF MS; residual activity greater than 50%) [4]: > 100 µM

H3K*14 histone peptide containing Orn at position 14 (H3 residues 3-17, K9 acetylated)
IC50 of inhibition of GCN5-catalyzed acetylation of the H3K14 peptide (single point, 100 µM of each peptide, 1 h, 37 °C, MALDI-TOF MS; residual activity greater than 50%) [3]: > 100 µM
IC50 of inhibition of PCAF-catalyzed acetylation of the H3K14 peptide (single point, 100 µM of each peptide, 1 h, 37 °C, MALDI-TOF MS; residual activity greater than 50%) [4]: > 100 µM

H3K*14 histone peptide containing h4K at position 14 (H3 residues 3-17, K9 acetylated)
IC50 of inhibition of GCN5-catalyzed acetylation of the H3K14 peptide (single point, 100 µM of each peptide, 1 h, 37 °C, MALDI-TOF MS; residual activity greater than 50%) [3]: > 100 µM
IC50 of inhibition of PCAF-catalyzed acetylation of the H3K14 peptide (single point, 100 µM of each peptide, 1 h, 37 °C, MALDI-TOF MS; residual activity greater than 50%) [4]: > 100 µM

H3h2K9 histone peptide (H3 residues 1-15, K14 acetylated, h2K at position 9)
Km^app of PCAF-catalyzed acetylation (MALDI-TOF MS kinetics, steady state, saturating AcCoA, 37 °C, pH 7.4) [2]: 179 μM

H3h2K14 histone peptide (H3 residues 3-17, K9 acetylated, h2K at position 14)
Km^app of GCN5-catalyzed acetylation (MALDI-TOF MS kinetics, steady state, saturating AcCoA, 37 °C, pH 7.4) [1]: 1050 μM
Km^app of PCAF-catalyzed acetylation (MALDI-TOF MS kinetics, steady state, saturating AcCoA, 37 °C, pH 7.4) [2]: 606 μM

H3hK14 histone peptide (H3 residues 3-17, K9 acetylated, hLys at position 14)
Km^app of GCN5-catalyzed acetylation (MALDI-TOF MS kinetics, steady state, saturating AcCoA, 37 °C, pH 7.4) [1]: 878 μM
Km^app of PCAF-catalyzed acetylation (MALDI-TOF MS kinetics, steady state, saturating AcCoA, 37 °C, pH 7.4) [2]: 488 μM

TKQTARK Ac STGG K14 APR [H3K14, 15-mer H3 peptide, residues 3–17, synthetically acetylated K9, reference compound]
time to quantitative acetylation by PCAF (PCAF (KAT2B); standard conditions: 2 µM PCAF): 15 min
time to quantitative acetylation by GCN5 (GCN5 (KAT2A); standard conditions: 2 µM GCN5, 100 µM peptide): 15 min
kcat^app (PCAF catalytic domain): 6.07 ± 0.02 s⁻¹
Km (PCAF catalytic domain): 727 ± 95 µM
kcat^app/Km^app (PCAF catalytic domain): 8330 M⁻¹ s⁻¹
kcat^app/Km^app (GCN5 catalytic domain): 5930 M⁻¹ s⁻¹
kcat^app (GCN5 catalytic domain): 5.9 ± 0.035 s⁻¹
Km (GCN5 catalytic domain): 995 ± 198 µM

TKQTARK Ac STGG h2K 14 APR [H3h2K14, 15-mer histone H3 peptide (K9ac) with h2K at position 14]
acetylation (conversion to acetylated peptide) by PCAF (PCAF (KAT2B); MALDI-TOF MS): 55%
acetylation (conversion to acetylated peptide) by GCN5 (GCN5 (KAT2A); MALDI-TOF MS): 25%
kcat^app (PCAF catalytic domain): 0.0083 ± 0.0017 s⁻¹
Km (PCAF catalytic domain): 606 ± 96 µM
decrease (drop) of kcat/Km for PCAF compared to the natural lysine peptide (PCAF catalytic domain): 625 fold
kcat^app/Km^app (PCAF catalytic domain): 13 M⁻¹ s⁻¹
decrease (drop) of kcat/Km for GCN5 compared to the natural lysine peptide (GCN5 catalytic domain): 890 fold
kcat^app/Km^app (GCN5 catalytic domain): 6.7 M⁻¹ s⁻¹
kcat^app (GCN5 catalytic domain): 0.00667 ± 0.0017 s⁻¹
Km (GCN5 catalytic domain): 1050 µM

TKQTARK Ac STGG hK 14 APR [H3hK14, 15-mer histone H3 peptide (K9ac) with hLys at position 14]
acetylation (conversion to acetylated peptide) by PCAF (PCAF (KAT2B); MALDI-TOF MS): 83%
acetylation (conversion to acetylated peptide) by GCN5 (GCN5 (KAT2A); MALDI-TOF MS): 62%
kcat^app (PCAF catalytic domain): 0.0155 ± 0.0033 s⁻¹
Km (PCAF catalytic domain): 488 ± 98 µM
decrease (drop) of kcat/Km for PCAF compared to the natural lysine peptide (PCAF catalytic domain): 263 fold
kcat^app/Km^app (PCAF catalytic domain): 31.7 M⁻¹ s⁻¹
decrease (drop) of kcat/Km for GCN5 compared to the natural lysine peptide (GCN5 catalytic domain): 354 fold
kcat^app/Km^app (GCN5 catalytic domain): 16.7 M⁻¹ s⁻¹
kcat^app (GCN5 catalytic domain): 0.0145 ± 0.0017 s⁻¹
Km (GCN5 catalytic domain): 878 ± 157 µM
